Measured values reported in patent US12178840B2, “Method and compositions comprising a CT20 peptide” (UNIVERSITY OF CENTRAL FLORIDA RESEARCH FOUNDATION, INC., priority 2014, dated 2024).
Residues, ends and D or L forms follow the SMILES beside them.

What was measured:
MCF-10A cells [1] = test: Biological effects of CT20 in HBPE-NPs in normal control epithelial cells; type: cell-based, human; settings: CT20 (˜3.4 nM) in HBPE-NPs
Description: This triggered hyperpolarization of the mitochondrial membrane and fusion-like aggregation (FIG. 3B) that impaired mitochondrial redistribution, ATP production, and F-actin polymerization (FIG. 3C). Cells remained viable during these “initiating events” (FIG. 3D). However, at 6 hours post-CT20 treatment, cells began detaching from the substrate (fibronectin) (FIG. 3E). This was preceded by decreased expression of integrins (β1 integrin is shown; FIG. 3F). By 24 hours post-CT20 treatment, “effector events” caused by peptide-induced detachment were detected, including the activation of caspases (FIG. 3G), the induction of autophagy (FIG. 3H), and increased ROS production (FIG. 3I). Cell death (anoikis), indicated by membrane asymmetry, was detected in cancer cells by 48 hours (FIG. 3J).

BT-549 cells = test: Cellular adhesion assay (fibronectin, crystal violet); type: cell-based, human; settings: 48 hours, varying doses
Description: (§1) Cellular adhesion assay: 96-well tissue culture plates were coated with 20 ug/mL fibronectin (Sigma) overnight at 4° C. Cells were then seeded in the plates at a density of 10,000 cells/well. Cells were treated with varying doses of CT20p for 48 hours. Plates were then shaken at 1400 rpm for 15 seconds, washed, and fixed with 10% neutral buffered formalin (Leica). Adhered cells were stained with 5 mg/mL crystal violet (Sigma) and absorbance at 595 nm was read on an EnVision plate reader (Perkin Elmer).
(§2) The effect of CT20p was examined on a panel of cell lines by measuring the impact on cellular adhesion. Metastatic cells vary their adhesion patterns as dictated by their environment (Cheung and Ewald 2014), and targeting adhesion ability could mitigate metastasis. To examine the cell lines, plates were coated with fibronectin to provide an appropriate substrate for adhesion, and cells were treated with CT20p for 48 hours at varying doses (FIG. 5A). […] Treating at this dose would allow us to observe the molecular effects of the peptide prior to cell death.

MCF-10A cells [2] = test: as above; type: cell-based, human
Description: as §1, §2

MDA-MB-231 cells = test: as above; type: cell-based, human; settings: 48 hours, varying doses
Description: as §1, §2

MDA-MB-436 cells [3] = test: as above; type: cell-based, human; settings: 48 hours, varying doses
Description: as §1, §2

MDA-MB-436 cells [4] = type: cell-based, human; settings: 75 ug/mL, time course
Description: Measurement of cell viability: Cells at 60% confluency were treated with CT20p at a dose of 75 ug/mL for varying lengths of time. Following treatment, cells were collected and stained with Sytox AADvanced and F2N12S Violet Ratiometric Apoptosis kit (Invitrogen). Data was acquired by flow cytometry on a FACS Canto (BD Biosciences), and analyzed with FCSExpress software (DeNovo).
The cytotoxicity of CT20p to the cell lines was also assessed. To do this, cells were treated with the effective dose of CT20p in a time course-experiment, and membrane symmetry and permeability were examined by flow cytometry (FIG. 5B). […] BT-549 cells, on the other hand, were resistant to the effects of the peptide.

CCTβ = target: T1, CCTβ (Homo sapiens, UniProt P78371); test: Lysate pull-down with CT20p-biotin, immunoblot for CCTβ; type: binding; settings: TNBC cell lines and MCF-10A lysates; more so in the MSL subtypes
T1 construct: probing lysates from the TNBC cell lines and MCF-10A cells with CT20p-biotin; endogenous in cells; host or cells: lysates of MDA-MB-231, MDA-MB-436, MDA-MB-468, BT-549 and MCF-10A cells
Description: Immunoblotting: Cell lysates were obtained by mechanical douncing in fractionation buffer consisting of 210 mM sucrose, 70 mM mannitol, 10 mM HEPES, 1 mM EDTA, pH 7.4. Lysates were centrifuged at 1,000×g for 10 minutes at 4° C., and the supernatants were subjected to SDS-PAGE, followed by transfer to Immobilon-FL membranes (Millipore). Blots were probed with primary antibodies against CCTβ (Millipore), […]. (Abcam), CCTε (Abcam), or p38 (Santa Cruz). Detection was performed by incubation with IRDye 800CW or IRDye 680CW secondary antibodies (LI-COR), followed by imaging on the Oddysey detection system (LI-COR). Quantificition of Western blots was performed with Image Studio software (LI-COR). Proteins of interest were quantified relative to p38 loading controls, then normalized to the level in MCF-10A cells.
Pull down experiments: Lysate pull-downs were performed with 200 ug cell lysate, obtained by douncing as described above. Lysates were pre-cleared with streptavidin-agarose beads (Pierce), then incubated with […] of CT20-Biotin or biotin for 3 hours at room temperature, followed by overnight incubation at 4° C. with streptavidin-agarose beads. Beads were washed thoroughly with wash buffer (25 mM Tris, 150 mM NaCl, 0.1% NP40, pH7.4), then heated in 4× loading buffer (Invitrogen) for analysis by SDS-PAGE. Mass spectrometric analysis was performed by Moffit Cancer Center (Tampa, FL). […]

SMILES: CC[C@H](C)[C@H](NC(=O)[C@@H](NC(=O)[C@H](CC(C)C)NC(=O)[C@H](CO)NC(=O)[C@H](C)NC(=O)[C@@H](NC(=O)[C@H](CC(C)C)NC(=O)[C@@H](NC(=O)CNC(=O)[C@H](C)NC(=O)[C@@H](NC(=O)[C@H](Cc1ccccc1)NC(=O)[C@@H](NC(=O)[C@@H](NC(=O)[C@@H](NC(C)=O)C(C)C)[C@@H](C)O)[C@@H](C)CC)C(C)C)C(C)C)[C@@H](C)O)[C@@H](C)O)C(=O)N[C@@H](Cc1c[nH]c2ccccc12)C(=O)N[C@@H](CCCCN)C(=O)N[C@@H](CCCCN)C(=O)N[C@@H](CCSC)C(=O)NCC(N)=O [CT20] (Ac-VTIFVAGVLTASLTIWKKMG-NH2)
- Cytoskeletal impairment and cell death in control epithelial cell line (MCF-10A cells [1]): not observed
- Cytoskeletal impairment and cell death in control epithelial cell line (MCF-10A cells [1]; listed as CT20 peptide): minimal cell death
- Effect on cellular adhesion (BT-549 cells): particularly unaffected
- Detachment of cells (MCF-10A cells [2]; 75 μg/mL of CT20p): does not cause detachment
- Effect on cellular adhesion (MCF-10A cells [2]; 48 hours, varying doses, fibronectin): particularly unaffected
- Effect on cellular adhesion (MDA-MB-231 cells): dose-dependent loss of adhesion
- Effect on cellular adhesion (MDA-MB-436 cells [3]): dose-dependent loss of adhesion
- Earliest time at which characteristics of cell death were displayed (MDA-MB-436 cells [4]): 6 h
- Interaction with CCTβ in cell lysates (CCTβ): able to interact with CCTβ in all cell lines
